The target in this experiment is T1, abc isoform of human TMEM16A channel expressed in CHO cells (Homo sapiens, UniProt Q5XXA6, DEL476-501).
T1 construct: expressed in transfected cells; host or cells: CHO cells, doxycycline-inducible expression under Blasticidin/Zeocin selection
T1 sequence (Q5XXA6 with tags, fused parts or gaps isoform Q5XXA6-5 DEL539-564): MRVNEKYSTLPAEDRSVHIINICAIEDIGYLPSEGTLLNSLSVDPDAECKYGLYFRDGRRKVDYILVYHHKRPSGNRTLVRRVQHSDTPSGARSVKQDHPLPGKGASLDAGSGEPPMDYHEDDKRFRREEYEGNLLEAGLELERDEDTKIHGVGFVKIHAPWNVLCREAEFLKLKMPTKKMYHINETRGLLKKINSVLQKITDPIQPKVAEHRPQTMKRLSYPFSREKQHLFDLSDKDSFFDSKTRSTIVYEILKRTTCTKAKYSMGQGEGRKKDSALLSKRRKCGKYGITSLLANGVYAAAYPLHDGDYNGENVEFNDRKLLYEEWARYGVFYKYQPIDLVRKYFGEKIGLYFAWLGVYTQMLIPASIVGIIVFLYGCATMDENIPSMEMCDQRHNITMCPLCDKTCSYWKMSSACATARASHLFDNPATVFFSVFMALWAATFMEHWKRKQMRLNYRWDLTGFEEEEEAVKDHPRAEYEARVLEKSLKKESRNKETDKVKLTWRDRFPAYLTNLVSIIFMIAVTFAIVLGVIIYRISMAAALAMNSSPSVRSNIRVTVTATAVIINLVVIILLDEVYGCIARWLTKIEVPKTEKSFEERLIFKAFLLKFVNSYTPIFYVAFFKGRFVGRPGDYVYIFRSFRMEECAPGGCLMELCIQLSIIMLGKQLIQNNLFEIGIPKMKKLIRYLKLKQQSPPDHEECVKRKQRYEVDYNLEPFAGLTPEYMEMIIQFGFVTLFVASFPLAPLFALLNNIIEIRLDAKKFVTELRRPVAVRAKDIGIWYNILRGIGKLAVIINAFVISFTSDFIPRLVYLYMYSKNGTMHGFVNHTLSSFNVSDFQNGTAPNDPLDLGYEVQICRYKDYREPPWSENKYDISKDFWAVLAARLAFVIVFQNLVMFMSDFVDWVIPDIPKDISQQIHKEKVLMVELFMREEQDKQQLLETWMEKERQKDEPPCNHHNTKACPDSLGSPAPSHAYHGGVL
The experiment in a line: Automated patch clamping (QPatch) assay to measure TMEM16A activity in whole-cell. The following applies: for EC50: CHO cells expressing human TMEM16A (abc), whole-cell automated patch clamp, Hill fit, read-out: TMEM16A QPATCH assay EC50 V3 EC50; for Emax: CHO, maximum current at highest dose relative to reference potentiator at maximal concentration (upper limit) and vehicle (lower limit), read-out: TMEM16A QPATCH assay EC50 V3 Assay Window (% TMEM16A max activation). It is filed as cell-based. The method, then: Automated Patch Clamping Assay to Measure TMEM16A Activity in Whole-Cell
Chinese hamster ovary cells (CHO) cells expressing abc isoform of human TMEM16A channel (Ref) were grown in vented cell-culture flasks (Corning) containing cell culture medium (1×F-12 Ham, 10% FBS, 1% Penicillin-streptomycin, 5 μg/mL Blasticidin S HCl, 400 μg/mL Zeocin), maintained at 37° C. in an incubator with 5% C02, 95% 02 and 100% humidity. The cells were passaged every 2-3 days at 80-90% confluence by aspirating the cell culture medium, washing twice with 10 mL D-PBS then incubating with 4 mL Trypsin-EDTA for no longer than 5 minutes. Trypsin was neutralized with the addition of 32 mL growth medium to the cell suspension, the cells were counted using a viable-cell counter (Vi-CELL; Beckmann-Coulter) and new flasks were seeded at a cell density of 0.01, 0.02, or 0.05×10^6 cells per cm2 for 3, 2, or 1 day(s) growth, respectively. Cell suspension was diluted in the new 175 cm2 flask with 50 mL of growth medium. Doxycycline was used to induce the expression of TMEM16A channel protein and was added directly to the culture flask 18-24 hours in advance of assay at a final concentration of 1 μg/mL. Induced cells were washed with D-PBS and detached from their culture flasks by adding 10 mL of Detachin and incubating for 10 minutes. Once detached, 5 mL of QPatch assay medium (1×CHO-S-SFM II (Sigma), 25 mM HEPES) was added and the resultant cell suspension counted using the Vi-CELL viable cell counter. The optimal cell density for this QPatch assay is 2-5×1 06 cells/mL; re-adjusted as necessary with QPatch assay medium.
The ion channel activity of TMEM16A (abc) expressed in CHO cells was assed using an automated patch clamp system (Qpatch, Sophion). These systems use planar patch-clamp technology to enable high-resistance, continuous whole-cell recordings from multiple cells in parallel, whilst maintaining each individual cell as an isolated experiment. First, each well was primed with intracellular and extracellular solutions described below. Cells were spun down, washed and then resuspended using extracellular solution. Intracellular solution: 130 mM N-methyl-D-glucamine, 10 mM EGTA, 20 mM CaCl2, 1 mM MgCl2, 10 mM HEPES 10, 10 mM BAPTA, 99 mM Sucrose, 2 mM Mg-ATP, pH 7.3, 320 mOsm Extracellular solution: 130 mM N-methyl-D-glucamine, 10 mM EGTA, 20 mM CaCl2, 1 mM MgCl2, 10 mM HEPES 10, 10 mM BAPTA, 99 mM Sucrose, 2 mM Mg-ATP, pH 7.3, 320 mOsm. Resuspended cells were then added to each well and suction was applied from the intracellular side in order to position a cell on the chip aperture, form a high resistance (GO) seal and achieve a whole-cell recording configuration. Following successful whole cell access, cell membranes were maintained at a voltage of −70 mV until the voltage protocol is applied. From this voltage, membranes were depolarized to +70 mV for 1500 ms, and then hyperpolarized to […] before being depolarized again from −90 to +70 mV in a continuous ramp waveform. At the end of the ramp, the membrane voltage is stepped back to −70 mV until the next waveform was applied. Compounds were dissolved at 10 mM in 100% DMSO and then diluted into extracellular solution (0.3% DMSO final) to the desired final concentration. The assay lower and upper limit were defined as follow, average amplitude (nA) of the last 3 sweeps in the vehicle addition of each cell was considered the basal current (lower limit); the average maximum current response in 3 cells for a reference potentiator at maximal concentration (upper limit). Current values for each compound concentration were then plotted against […]. EC50 curves are fitted to concentration-response data using curve-fitting functions (Hill fit) within the QPatch software. Curve fitting is constrained between the lowest concentration (vehicle-only addition) and the highest current value measured within the concentration range. […]
A general note: The patch-clamp technique gives a direct electrical read-out from membranes.

As usually defined, the EC50 is the midpoint of the concentration-response curve. On to `CCC(CC)NC(=O)c1cc(-c2cccc(-c3ncc(C(=O)NC(CC)CC)o3)c2)n[nH]1` [Example 1.20, N-(Pentan-3-Yl)-2-(3-(5-(Pentan-3-Ylcarbamoyl)-1H-Pyrazol-3-yl)Phenyl)Oxazole-5-Carboxamide], for which the EC50 was found to be 290 nM and the Emax amounted to 112%.
`CCC(CC)NC(=O)c1cc(-c2cccc(-c3ncc(C(=O)N[C@@H](C)c4ccccc4)o3)c2)[nH]n1` [Example 1.21, (S)-2-(3-(3-(Pentan-3-Ylcarbamoyl)-1H-Pyrazol-5-Yl)Phenyl)-N-(1-Phenylethyl)Oxazole-5-Carboxamide]: the EC50 was 930 nM and the Emax amounted to 92%.
Turning to `CCOC(=O)[C@@H](NC(=O)c1cnc(-c2cccc(-c3cc(C(=O)NC(CC)C(F)(F)F)[nH]n3)c2)o1)C(C)C` (stereo partly drawn) [Example 1.22, (2S)-Ethyl 3-Methyl-2-(2-(3-(5-((1,1,1-Trifluorobutan-2-Yl)Carbamoyl)-1H-Pyrazol-3-Yl)Phenyl)Oxazole-5-Carboxamido)Butanoate], the EC50 is 30 nM and the Emax amounted to 119%.
As for `CCC(CC)NC(=O)c1cc(-c2cccc(-c3ncc(C(=O)N[C@@H](C)C4CCCCC4)o3)c2)[nH]n1` [Example 1.24, (S)-N-(1-Cyclohexylethyl)-2-(3-(3-(Pentan-3-Ylcarbamoyl)-1H-Pyrazol-5-yl)Phenyl)Oxazole-5-Carboxamide], the EC50 stood at 180 nM and the Emax is 83%.
For the compound `COC(=O)[C@@H](CSC)NC(=O)c1cnc(-c2cccc(-c3cc(C(=O)N[C@@H](C)C4CC4)n[nH]3)c2)o1` [Example 1.25, (S)-Methyl 2-(2-(3-(3-(((S)-1-Cyclopropylethyl)Carbamoyl)-1H-Pyrazol-5-yl)Phenyl)Oxazole-5-Carboxamido)-3-(Methylthio)Propanoate], the EC50 worked out at 260 nM and the Emax is 83%.
For the compound `CCC(CC)NC(=O)c1cc(-c2cccc(-c3ncc(C(=O)N[C@@H](CC(C)C)C(=O)OC)o3)c2)[nH]n1` [Example 1.26, (S)-Methyl 4-Methyl-2-(2-(3-(3-(Pentan-3-Ylcarbamoyl)-1H-Pyrazol-5-yl)Phenyl)Oxazole-5-Carboxamido)Pentanoate], the EC50 was found to be 640 nM and the Emax was determined as 91%.
As to `CCC(CC)NC(=O)c1cc(-c2cccc(-c3ncc(C(=O)Nc4cccc(C#N)c4)o3)c2)[nH]n1` [Example 1.27, N-(3-Cyanophenyl)-2-(3-(3-(Pentan-3-Ylcarbamoyl)-1 H-Pyrazol-5-yl)Phenyl)Oxazole-5-Carboxamide], the EC50 was determined as 920 nM and the Emax was determined as 86%.
Turning to `CCOC(=O)[C@H](NC(=O)c1cnc(-c2cccc(-c3cc(C(=O)NC(CC)CC)n[nH]3)c2)o1)c1ccccc1` [Example 1.28, (R)-Ethyl 2-(2-(3-(3-(Pentan-3-Ylcarbamoyl)-1 H-Pyrazol-5-yl)Phenyl)Oxazole-5-Carboxamido)-2-Phenylacetate], the EC50 amounted to 610 nM and the Emax is 84%.
Regarding `COC(=O)[C@@H](NC(=O)c1cnc(-c2cccc(-c3cc(C(=O)NC(C4CC4)C4CC4)[nH]n3)c2)o1)C(C)C` [Example 1.29, (S)-Methyl 2-(2-(3-(5-((Dicyclopropylmethyl)Carbamoyl)-1 H-Pyrazol-3-yl)Phenyl)Oxazole-5-Carboxamido)-3-Methylbutanoate], the EC50 was determined as 10 nM and the Emax stood at 113%.
Take `CCC(CC)NC(=O)c1cc(-c2cccc(-c3ncc(C(=O)Nc4ccon4)o3)c2)[nH]n1` [Example 1.30, N-(Isoxazol-3-Yl)-2-(3-(3-(Pentan-3-Ylcarbamoyl)-1 H-Pyrazol-5-yl)Phenyl)Oxazole-5-Carboxamide]: the EC50 was determined as 870 nM and the Emax was 62%.
With `CCC(CC)NC(=O)c1cc(-c2cccc(-c3ncc(C(=O)NCc4ccc5c(c4)OCO5)o3)c2)[nH]n1` [Example 1.31, N-(Benzo[d][1,3]Dioxol-5-Ylmethyl)-2-(3-(3-(Pentan-3-Ylcarbamoyl)-1 H-Pyrazol-5-yl)Phenyl)Oxazole-5-Carboxamide], the half-maximal effective concentration (EC50) was 770 nM and the Emax turned out to be 65%.
The like results for `CCC(CC)NC(=O)c1cc(-c2cccc(-c3ncc(C(=O)NCC(=O)OC(C)C)o3)c2)[nH]n1` [Example 1.32, Isopropyl 2-(2-(3-(3-(Pentan-3-Ylcarbamoyl)-1 H-Pyrazol-5-yl)Phenyl)Oxazole-5-Carboxamido)Acetate] were, in that order, 880 nM and 77%.
On to `CCC(CC)NC(=O)c1cc(-c2cccc(-c3ncc(C(=O)Nc4cccc(Cl)c4)o3)c2)[nH]n1` [Example 1.33, N-(3-Chlorophenyl)-2-(3-(3-(Pentan-3-Ylcarbamoyl)-1H-Pyrazol-5-yl)Phenyl)Oxazole-5-Carboxamide], for which the EC50 is 720 nM and the Emax amounted to 66%.
Take `CCC(CC)NC(=O)c1cc(-c2cccc(-c3ncc(C(=O)NCC4(C)CCCCC4)o3)c2)[nH]n1` [Example 1.34, N-((1-Methylcyclohexyl)Methyl)-2-(3-(3-(Pentan-3-Ylcarbamoyl)-1 H-Pyrazol-5-Yl)Phenyl)Oxazole-5-Carboxamide]: the EC50 turned out to be 570 nM and the Emax turned out to be 72%.
For `CCCC(CCC)NC(=O)c1cnc(-c2cccc(-c3cc(C(=O)NC(CC)CC)n[nH]3)c2)o1` [Example 1.35, N-(Heptan-4-Yl)-2-(3-(3-(Pentan-3-Ylcarbamoyl)-1H-Pyrazol-5-yl)Phenyl)Oxazole-5-Carboxamide], the EC50 amounted to 70 nM and the Emax was found to be 90%.
The like results for `CCOC(=O)[C@@H](NC(=O)c1cnc(-c2cccc(-c3cc(C(=O)NC(CC)CC)n[nH]3)c2)o1)c1ccccc1` [Example 1.36, (S)-Ethyl 2-(2-(3-(3-(Pentan-3-Ylcarbamoyl)-1 H-Pyrazol-5-Yl)Phenyl)Oxazole-5-Carboxamido)-2-Phenylacetate] were, in that order, 1100 nM and 102%.

For the origin of these results see US20220306617A1, “SUBSTITUTED 1,3-PHENYL HETEROARYL DERIVATIVES AND THEIR USE IN THE TREATMENT OF DISEASE” (NOVARTIS AG, priority 2019, published 2022).
